This is an account of results in US7745639B2, “Mitotic kinesin inhibitors” (Merck & Co., Inc., priority 2002, dated 2010).

Structures are written as SMILES.

The target in the first experiment is T1, human KSP motor domain (KSP(367H)) (Homo sapiens, UniProt P52732).
T1 construct: were used to amplify the motor domain and the neck linker region; made in house; host or cells: E. coli BL21 (DE3), vector pRSETa
T1 sequence (P52732 18-359 limits assumed): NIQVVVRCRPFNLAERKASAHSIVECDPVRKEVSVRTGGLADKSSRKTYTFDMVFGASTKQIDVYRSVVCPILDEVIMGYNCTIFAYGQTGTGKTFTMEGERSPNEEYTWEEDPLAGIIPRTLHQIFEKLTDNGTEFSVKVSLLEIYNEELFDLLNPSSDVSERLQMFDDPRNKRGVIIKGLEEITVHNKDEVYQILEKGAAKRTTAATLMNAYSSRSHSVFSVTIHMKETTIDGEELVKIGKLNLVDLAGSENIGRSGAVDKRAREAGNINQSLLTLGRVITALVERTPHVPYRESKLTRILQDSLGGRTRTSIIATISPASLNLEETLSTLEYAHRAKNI
Nature of the experiment: Kinesin ATPase in vitro assay. Format: biochemical.
Settings: not given
The text has this:
I. Kinesin ATPase In Vitro Assay
Cloning and Expression of Human Poly-Histidine Tagged KSP Motor Domain (KSP(367H))
Plasmids for the expression of the human KSP motor domain construct were cloned by PCR using a pBluescript full length human KSP construct (Blangy et al., Cell, vol.83, pp 1159-1169, 1995) as a template. The N-terminal primer 5′-[…] (SEQ.ID.NO.: 1) and the C-terminal primer 5′-[…] (SEQ.ID.NO.: 2) were used to amplify the motor domain and the neck linker region. The PCR products were digested with AseI and XhoI, ligated into the NdeI/XhoI digestion product of pRSETa (Invitrogen) and transformed into E. coli BL21 (DE3).
Cells were grown at 37° C. to an OD600 of 0.5. After cooling the culture to room temperature expression of KSP was induced with 100 μM IPTG and incubation was continued overnight. Cells were pelleted by centrifugation and washed once with ice-cold PBS. Pellets were flash-frozen and stored −80° C.
Cell pellets were thawed on ice and resuspended in lysis buffer (50 mM K-HEPES, pH 8.0, 250 mM KCl, 0.1% Tween, 10 mM imidazole, 0.5 mM Mg-ATP, 1 mM PMSF, 2 mM benzimidine, 1× complete protease inhibitor cocktail (Roche)). Cell suspensions were incubated with 1 mg/ml lysozyme and 5 mM β-mercaptoethanol on ice for 10 minutes, followed by sonication (3×30 sec). All subsequent procedures were performed at 4° C. Lysates were centrifuged at 40,000×g for 40 minutes. Supernatants were diluted and loaded onto an SP Sepharose column (Pharmacia, 5 ml cartridge) in buffer A (50 mM K-HEPES, pH 6.8, 1 mM MgCl2, 1 mM EGTA, […], 1 mM DTT) and eluted with a 0 to 750 mM KCl gradient in buffer A. Fractions containing KSP were pooled and incubated with Ni-NTA resin (Qiagen) for one hour. The resin was washed three times with buffer B (Lysis buffer minus PMSF and protease inhibitor cocktail), followed by three 15-minute incubations and washes with buffer B. Finally, the resin was incubated and washed for 15 minutes three times with buffer C (same as buffer B except for pH 6.0) and poured into a column. KSP was eluted with elution buffer (identical to buffer B except for 150 mM KCl and 250 mM imidazole). KSP-containing fractions were pooled, made 10% in sucrose, and stored at −80° C.
Microtubules are prepared from tubulin isolated from bovine brain. Purified tubulin (>97% MAP-free) at 1 mg/ml is polymerized at 37° C. in the presence of 10 μM paclitaxel, 1 mM DTT, 1 mM GTP in BRB80 buffer (80 mM K-PIPES, 1 mM EGTA, 1 mM MgCl2 at pH 6.8). The resulting microtubules are separated from non-polymerized tubulin by ultracentrifugation and removal of the supernatant. The pellet, containing the microtubules, is gently resuspended in 10 μM paclitaxel, 1 mM DTT, 50 μg/ml ampicillin, and 5 μg/ml chloramphenicol in BRB80.
The kinesin motor domain is incubated with microtubules, 1 mM ATP (1:1 MgCl2: Na-ATP), and compound at 23° C. in buffer containing 80 mM K-HEPES (pH 7.0), 1 mM EGTA, 1 mM DTT, 1 mM MgCl2, and 50 mM KCl. The reaction is terminated by a 2-10 fold dilution with a final buffer composition of 80 mM HEPES and 50 mM EDTA. Free phosphate from the ATP hydrolysis reaction is measured via a quinaldine red/ammonium molybdate assay by adding 150 μl of quench C buffer containing a 2:1 ratio of quench A:quench B. Quench A contains 0.1 mg/ml quinaldine red and 0.14% polyvinyl alcohol; quench B contains 12.3 mM ammonium molybdate tetrahydrate in 1.15 M sulfuric acid. The reaction is incubated for 10 minutes at 23° C., and the absorbance of the phospho-molybdate complex is measured at 540 nm.
For orientation: IC50 means the concentration that gives 50% inhibition. The molecule `CC(=O)N1N=C(c2ccccc2Cl)CC1c1cccc(O)c1` (stereo not drawn) [Compound 1-7, 3-[1-acetyl-3-(2-chlorophenyl)-4,5-dihydro-1H-pyrazol-5-yl]phenyl] had an IC50 of at most 50 µM.

The same experiment, now with this note: kinesin motor domain incubated with microtubules, 1 mM ATP and compound at 23° C.; free phosphate by quinaldine red/ammonium molybdate, 540 nm; read-out: IC50.
On to `CC(=O)N1N=C(c2cc(F)ccc2F)CC1c1cccc(O)c1` (racemic) [Compound 4-5, 3-[1-acetyl-3-(2,5-difluorophenyl)-4,5-dihydro-1H-pyrazol-5-yl]phenyl], for which the IC50 is at most 50 µM. As to `CCNC(=O)N1N=C(c2cc(F)ccc2F)CC1(CCCNC(=O)c1ncc[nH]1)c1ccccc1` (stereo not drawn) [Compound 10-2, 3-(2,5-difluorophenyl)-N-ethyl-5-{3-[(1H-imidazol-2-ylcarbonyl)amino]propyl}-5-phenyl-4,5-dihydro-1H-pyrazole-1-carboxamide], the IC50 is at most 50 µM. Turning to `O=C(N1CCNCC1)N1N=C(c2cc(F)ccc2F)CC1c1ccccc1` (stereo not drawn) [Compound 5-6, 1-{[3-(2,5-difluorophenyl)-5-phenyl-4,5-dihydro-1H-pyrazol-1-yl]carbonyl}piperazine], the IC50 was at most 50 µM. `NCCCC1(c2ccccc2)CC(c2cc(F)ccc2F)=NN1C(=O)N1CCOCC1` (stereo not drawn) [Compound 7-7, 3-[3-(2,5-difluorophenyl)-1-(morpholin-4-ylcarbonyl)-5-phenyl-4,5-dihydro-1H-pyrazol-5-yl]propan-1-amine]: the IC50 is at most 50 µM. `CC(=O)N1N=C(c2ccccc2Cl)CC1(C)c1cccc(O)c1` (stereo not drawn) [Compound 3-3, 3-[1-acetyl-3-(2-chlorophenyl)-5-methyl-4,5-dihydro-1H-pyrazol-5-yl]phenyl]: the IC50 is at most 50 µM. The same measure, in the same setting: in the case of `CN(C)C(=O)N1N=C(c2cc(F)ccc2F)CC1(CCC(N)c1ccccc1)c1ccccc1` (stereo not drawn) [Compound 11-2, 5-(3-amino-3-phenylpropyl)-3-(2,5-difluorophenyl)-N,N-dimethyl-5-phenyl-4,5 dihydro-1H-pyrazole-1-carboxamide] it was at most 50 µM. `CC(=O)N1N=C(c2cc(F)ccc2F)C(C)C1c1ccccc1` (single isomer, unassigned) [Compound 12-2, 1-acetyl-3-(2,5-difluorophenyl)-4-methyl-5-phenyl-4,5-dihydro-1H-pyrazole]: the IC50 is at most 50 µM.

As to `CS(=O)(=O)N1N=C(c2cc(F)ccc2F)CC1c1ccccc1` (stereo not drawn) [Compound 8-1, 3-(2,5-difluorophenyl)-1-(methylsulfonyl)-5-phenyl-4,5-dihydro-1H-pyrazole], the IC50 was at most 50 µM. On to `CN1N=C(c2cc(F)ccc2F)CC1(C)c1ccccc1` (stereo not drawn) [Compound 6-2, 3-(2,5-difluorophenyl)-1,5-dimethyl-5-phenyl-4,5-dihydro-1H-pyrazole], for which the IC50 was at most 50 µM. For the molecule `CC(C)C(=O)N1N=C(c2ccccc2Cl)CC1c1cccc(O)c1` (stereo not drawn) [Compound 2-1, 3-[3-(2-chlorophenyl)-1-isobutyryl-4,5-dihydro-1H-pyrazol-5-yl]phenyl], the IC50 was at most 50 µM. Regarding `CCNC(=O)N1N=C(c2cc(F)ccc2F)CC1(CCCN(C)C)c1ccccc1` (stereo not drawn) [Compound 9-2, 3-(2,5-difluorophenyl)-5-[3-(dimethylamino)propyl]-N-ethyl-5-phenyl-4,5-dihydro-1H-pyrazole-1-carboxamide], the IC50 is at most 50 µM.
